Patent publication US11649218B2, “C-Abl tyrosine kinase inhibitory compound embodiments and methods of making and using the same” (The USA, as represented by the Secretary, Dept. of Health …, priority 2018, dated 2023)
Values joined by “and” are separate entries in the source; they are usually repeats but may differ in a detail not shown here. Equal entries are not always repeated. One block for each molecule: values may come before it.

What was measured:
[1] = system: P. falciparum strain NF54 asexual parasites; assay: Asexual stage parasite growth inhibition, SYBR Green assay, 72 hours; type: cell-based; settings: for % Killing / IC50: NF54, 72 hours; for IC50: Plasmodium falciparum
Protocol: In this example, several of the c-Abl inhibitors were tested in the asexual […] strain of P. falciparum parasites for activity against malaria. […] The pre-diluted parasites were dispensed into a 1536-well plate (2.5 μL/well). […] The fluorescence of each well was measured at 520 nm following excitation at 490 nm using a ViewLux platereader (PerkinElmer).

[2] = system: Leukemia K562 cell; assay: Leukemia K562 cell proliferation/viability assay (CellTiterGlo, 48 hours); type: cell-based; design: unit not given here; settings: K562 cells
Protocol: C-Abl is encoded by the ABL1 gene (NCBI Gene ID NO. 25). […] Assays for determining if a small molecule inhibits c-Abl activity are known. Non-limiting examples include cell proliferation assays using cancer cells that are BCR-Abl positive and depend on BCR-Abl for growth, such as the leukemia cell line K562. […] In some embodiments described herein, compounds are tested for ability to reduce K562 cell proliferation in an HTS adapted assay which measures cell viability using the reagent CellTiterGlo after 48 hours treatment.

[3] = system: ShSy5y neuroblastome cells; assay: Cholesterol accumulation induced by U18666, Filipin or PFO-GST staining; type: cell-based; settings: U18 0.5 μg/ml 24 hours; NCGC00373060 0.1 and 0.01 μM, Imatinib 10 uM
Protocol: Cells were fixed and then stained with Filipin Staining. […] Cells were fixed and a PFO-GST immunofluorescence was performed.

[4] = system: APP/PSEN1 mice; assay: APP/PSEN1 AD mice model, water maze, Barnes maze and brain histology; settings: water maze
From the text: The Barnes maze test is a more sensible test that detects the earlier and subtle cognitive alterations.

[5] = system: neurons; assay: Apoptotic nuclei induced by Aβ fibrils, Hoescht staining; type: cell-based
Protocol: Additional results from another compound embodiment, NCGC00355553, are provided by FIG. 9C. Apoptotic nuclei were evaluated by Hoescht staining.

[6] = system: 5XFAD mice; assay: 5XFAD AD mice model, water maze and amyloid burden; type: in vivo; settings: 9-month-old 5XFAD mice, 12.5 mg/kg daily for 30 days, IP
From the text: . First, the 5XFAD mice was used as the AD model. […] .

[7] = system: CML (K562) cell line; assay: K562 cell proliferation inhibition by MTT assay, 48 hours; type: cell-based; settings: K562, 48 hours
Protocol: In this example, the ability of two compound embodiments described here, NCGC00373060 and NCGC00373056, to induce cell death in the CML (K562) cell line was evaluated. The leukemia cells were incubated with different concentrations of the compounds for 48 hours, and the cell proliferation inhibition was evaluated by the MTT assay. […] The leukemia cells were incubated with different concentrations of each compound embodiment for 48 hours, and the cell proliferation inhibition was evaluated by the MTT assay.

[8] = system: hippocampal neurons; assay: Neuroprotection against Aβ fibrils, MTT assay; type: cell-based; settings: 0.01, 0.1 and 1 μM; 5 μM Aβ peptide, 24 hours
Protocol: Compound embodiments NCGC00373060 and NCGC00373056 also conferred neuroprotection against Aβ fibrils. […] Additional data from other compounds are provided by FIGS. 8C-8E. Neurons were incubated with 5 μM Aβ peptide in presence of the different compound concentrations for 24 hours and cell viability was evaluated by the MTT assay. Results from additional compounds are provided by FIG. 8C.

[9] = Pharmacokinetic profile in plasma; type: in vivo, mice; settings: 12.5 mg/kg IP
[10] = Pharmacokinetic profile in brain; type: in vivo, mice; settings: 12.5 mg/kg IP
[11] = system: TLE mice model; assay: Pilocarpine-induced status epilepticus (SE) after 15 days of supplemented diet; type: in vivo, mice (C57BL/6); design: Survival % / Survival %, mean: concentration or dose not given beside the values
Protocol: (§1) In this example, the ability of compound embodiments of the present disclosure to increase survival and diminish seizure symptoms in a TLE mice model was evaluated. […] The animals' weights were determined the week before and during the two weeks of c-Abl inhibitors treatment (results are provided in Table 12 and are illustrated graphically in FIG. 28). After 15 days of feeding, status epilepticus (SE) induction was evaluated. The mice were IP injected with Scopolamine (1.5 mg/Kg) and after 15 minutes, the SE was induced by IP injection of Pilocarpine (420 mg/Kg). The animals' behavior and the seizures induction was evaluated according to Racine's scale and the survival was determined during 60 minutes post-SE induction. […] Results are tabulated in Table 13, below and also are illustrated graphically in FIGS. 29A-29D.

[12] = Body weight during supplemented diet in TLE mice study; type: in vivo, mice (C57BL/6)
Protocol: as §1

[13] = Blood and serum analysis after one month of supplemented diet; type: in vivo, mice (C57BL/6×C3H); settings: 1 month diet (Nilotinib 200 ppm; NCGC00373060 67 ppm), individual mice
From the text: After this one-month period, blood and serum was obtained from the mice and analyzed.

[14] = individual mice, diet 67 ppm NCGC00373060 or 200 ppm Nilotinib
[15] = mean, diet 67 ppm NCGC00373060 or 200 ppm Nilotinib

SMILES: Cc1ccc(NC(=O)c2ccc(CN3CCN(C)CC3)cc2)cc1Nc1nccc(-c2cccnc2)n1 [Imatinib]
% Killing [1]: 111.0% | Efficacy [2]: −105.5 | cholesterol accumulation [3]: decreased the cholesterol accumulation

SMILES: CS(=O)(=O)Nc1cccc(-c2ccc3c(c2)C(=O)Nc2cc(OC(F)(F)F)ccc2N3)c1 [NCGC00355551, N-(3-(11-Oxo-8-(trifluoromethoxy)-10,11-dihydro-5H-dibenzo[b,e][1,4]diazepin-2-yl)phenyl)methanesulfonamide]
Efficacy [2]: −85.3 | cognitive decline in APP/PSEN1 mice [4]: protects APP/PSEN1 mice against cognitive decline

SMILES: O=C1Nc2cc(OC(F)(F)F)ccc2Nc2ccc(-c3cn[nH]c3)cc21 [NCGC00355553, 2-(1H-Pyrazol-4-yl)-8-(trifluoromethoxy)-5,10-dihydro-1-dibenzo[b,e][1,4]diazepin-11-one]
apoptotic nuclei induced by Aβ fibrils [5]: prevent increases in apoptotic nuclei induced by Aβ fibrils

IC50 [1]: 1360 nM | Plasma concentration ([9]; Time 0.083): 12.080 µM | Plasma concentration ([9]; Time 0.25): 16.961 µM | Plasma concentration ([9]; Time 0.5): 16.559 µM | Plasma concentration ([9]; Time 1): 8.627 µM | Plasma concentration ([9]; Time 2): 6.747 µM | Plasma concentration ([9]; Time 4): 2.600 µM | Plasma concentration ([9]; Time 7): 0.421 µM | Plasma concentration ([9]; Time 24): 0.009 µM | Brain concentration ([10]; Time 0.083): 1.291 µmol/kg | Brain concentration ([10]; Time 0.25): 2.649 µmol/kg | Brain concentration ([10]; Time 0.5): 2.658 µmol/kg | Brain concentration ([10]; Time 1): 3.381 µmol/kg | Brain concentration ([10]; Time 2): 2.212 µmol/kg | Brain concentration ([10]; Time 4): 1.065 µmol/kg | Brain concentration ([10]; Time 7): 0.202 µmol/kg | Brain concentration ([10]; Time 24): 0.004 µmol/kg
SMILES: CNS(=O)(=O)c1cccc(-c2ccc3c(c2)C(=O)Nc2cc(OC(F)(F)F)ccc2O3)c1 [NCGC00373056, N-Methyl-3-(11-oxo-8-(trifluoromethoxy)-10H-dihydrodibenzo[b,f][1,4]oxazepin-2-yl)benzenesulfonamide]
cognitive decline, water maze [6]: protected 5XFAD mice against the cognitive decline | AC50 ([7]; Homo sapiens, determined in different assays): 500 nM | induction of cell death ([7]; MTT): able to induce cell death | activity against malaria parasites ([1]; NF54): low single digit uM range | % Killing [1]: 96.5% | apoptotic nuclei induced by Aβ fibrils [5]: prevention of the increases in apoptotic nuclei induced by Aβ fibrils | neuroprotection against Aβ toxicity [8]: protect neurons against the Aβ toxicity | Efficacy [2]: −78.5

SMILES: Cc1cn(-c2cc(NC(=O)c3ccc(C)c(Nc4nccc(-c5cccnc5)n4)c3)cc(C(F)(F)F)c2)cn1 [Nilotinib]
% Killing [1]: 98.7% | IC50 [1]: 648 nM | Survival % ([11]; individual mice, 60 minutes post-SE induction): 100% | Latency SE [11, 14]: 30 min and 22 min | Survival %, mean ([11]; mean, 60 minutes post-SE induction): 100% | Latency SE, mean [11, 15]: 26 min | SE %, mean [11, 15]: 40% | Body weight week 4 [12, 14]: 17 gr (2×) and 19 gr and 15 gr (2×) and 14 gr (2×) and 18 gr (2×) | Body weight week 5 [12, 14]: 18 gr (3×) and 21 gr and 17 gr and 19 gr and 16 gr and 20 gr (2×) | Body weight week 3 ([12]; individual mice, week before diet (67 ppm NCGC00373060 or 200 ppm Nilotinib)): 15 gr (2×) and 18 gr and 11 gr and 9 gr (2×) and 12 gr and 14 gr and 16 gr | Body weight week 4, mean [12, 15]: 16 gr | Body weight week 5, mean [12, 15]: 19 gr | Body weight week 3, mean ([12]; mean, week before diet (67 ppm NCGC00373060 or 200 ppm Nilotinib)): 13 gr | Efficacy [2]: −86.5 | ALT [13]: 36.0 IU/L and 26.0 IU/L | AST [13]: 142.0 IU/L and 114.0 IU/L | Alkaline phosphatase [13]: 386.4 IU/ and 278.2 IU/ | Bacilliformes [13]: 0 µL⁻¹ | Bacilliformres (%) [13]: 0% | Blastos [13]: 0 µL⁻¹ | Blood urea nitrogen [13]: 19.7 mg/dL and 18.2 mg/dL | C.H.C.M. [13]: 29.3 g/dL and 28.9 g/dL | Calcium [13]: 10.4 mg/dL and 10.2 mg/dL | Creatinine [13]: 1.0 mg/dL and 0.8 mg/dL | Eosinophils [13]: 32 µL⁻¹ and 0 µL⁻¹ | Eosinophils (%) [13]: 1% and 0% | Erythrocytes [13]: 5.9e+06 µL⁻¹ and 8.6e+06 µL⁻¹ | Glucose (without fluoride) [13]: 84.0 mg/dL and 56.0 mg/dL | H.C.M. [13]: 14.9 pg/cel and 14.7 pg/cel | Hematocrit [13]: 30.0% and 43.6% | Hemoglobin [13]: 8.8 g/dL and 12.6 g/dL | Juvenile [13]: 0 µL⁻¹ | Leukocytes [13]: 3,200 /μL and 3,300 /μL | Lymphocytes (%) [13]: 60% and 62% | Mean platelet vol. [13]: 6.9 fL and 6.1 fL | Monocytes (%) [13]: 4% and 15% | Morphology leukocytes [13]: Normal | Myelocytes [13]: 0 µL⁻¹ | Reticulocytes (%) [13]: 0.5% and 0.6% | Reticulocytes (×10^3/μL) [13]: 29.6 ×10^3/μL and 51.3 ×10^3/μL | Segmented [13]: 759 µL | Segmented (%) [13]: 35% and 23% | Segmented (μL) [13]: 1,120 μL | Thrombocyte morphology [13]: Normal | Thrombocytes [13]: 780,000 /μL and 689,000 /μL | Total cholesterol [13]: 114.0 mg/dL and 84.0 mg/dL | V.C.M. [13]: 50.8 fL and 51.0 fL | V.H.S. [13]: 3.0 and 6.0 | Weight [13]: 42.7 g and 25.2 g | Youth (%) [13]: 0% | Lymphocytes ([13]; absolute count): 1,920 and 2,046 | Monocytes ([13]; absolute count): 128 and 495
